Measurements reported in ChEMBL document CHEMBL3576794, “Decaprenylphosphoryl-β-d-ribose 2'-Epimerase 1 (DprE1): A Novel Therapeutic Target for the Treatment of Tuberculosis” (2015).
Values after ≈ are worked out from the molar mass of the structure shown.

Test system: Mycobacterium tuberculosis
Assay: Antibacterial activity against Mycobacterium tuberculosis H37Rv ATCC 27294 after 5 days by microdilution method
Format: functional
Conditions: H37Rv ATCC 27294, 120 h

**Q.** How did the MIC80 turn out when `COc1ncnc(Cn2cc(C(=O)NCCF)c3ncccc32)c1C` was run?
**A.** The MIC80 was 1.56 µM (≈ 0.536 µg/mL).

**Q.** With `COc1ncnc(Cn2cc(C(=O)NCCF)c3ncc(Br)cc32)c1C` as the compound, how does the MIC80 read?
**A.** Its MIC80 is 0.781 µM (≈ 0.33 µg/mL).

**Q.** Which MIC80 does the source give for `COc1cnc2c(C(=O)NCC(F)F)cn(Cc3ncnc(OC)c3C)c2c1` here?
**A.** The MIC80 was < 0.39 µM.

**Q.** With `CC(c1c(F)cccc1F)n1cc(C(=O)NCCF)c2ncccc21` (stereo unspecified) as the compound, how does the MIC80 read?
**A.** Its MIC80 is 12.5 µM (≈ 4.34 µg/mL).

**Q.** With `COc1ncnc(Cn2cc(C(=O)NC[C@@H](C)O)c3ncc(C)cc32)c1C` as the compound, how does the MIC80 read?
**A.** The MIC80 was 6.52 µM (≈ 2.41 µg/mL).

**Q.** Which MIC80 does the source give for `COc1ncnc(Cn2cc(C(=O)NCCO)c3ncc(C)cc32)c1C` [TBA-7371] here?
**A.** Its MIC80 is 1.56 µM (≈ 0.554 µg/mL).
